Where only a bound is given, the exact number is not on record here.

The first test deals with recombinant human NUDT5 (Homo sapiens, UniProt Q9UKK9). The test is described as follows: NUDT5 inhibitor activity by malachite green reporter assay. Type of test: biochemical. The settings on record: Table 3; 6 nM NUDT5, 50 μM ADP-Ribose, 15 minutes at room temperature. In outline:
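Coupled ADP-ribose hydrolysis in 10 mM Tris-acetate pH 8.0, 40 mM NaCl, 10 mM Mg acetate, 0.005% Tween-20, 1 mM DTT: 6 nM NUDT5, 50 μM ADP-Ribose, 10 U/ml alkaline phosphatase, 15 min at room temperature. Pi read by malachite green at 630 nm; compounds 100 μM–1.7 nM, 3-fold; IC50 by curve fit.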
Broadly, the IC50 is the midpoint of a concentration-inhibition curve. In the case of `Cc1cccc(-c2nnc(Cn3c(N4CCN(C5CCCCC5)CC4)nc4c3c(=O)n(C)c(=O)n4C)o2)c1` [Example 59, 8-(4-cyclohexylpiperazin-1-yl)-1,3-dimethyl-7-{[5-(3-methylphenyl)-1,3,4-oxadiazol-2-yl]methyl}-2,3,6,7-tetrahydro-1H-purine-2,6-dione], the IC50 is more than 1 µM.
The same measure, in the same setting: with `CCS(=O)(=O)c1nc2c(c(=O)n(C)c(=O)n2C)n1Cc1nnc(-c2ccc(Cl)c(Cl)c2)o1` [Example 23, 7-{[5-(3,4-dichlorophenyl)-1,3,4-oxadiazol-2-yl]methyl}-8-(ethanesulfonyl)-1,3-dimethyl-2,3,6,7-tetrahydro-1H-purine-2,6-dione] the figure was 0.0244 µM; with `Cn1c(=O)c2c(nc(SC3CCCCC3)n2Cc2nnc(-c3ccc(Cl)c(Cl)c3)o2)n(C)c1=O` [Example 7, 8-(cyclohexylsulfanyl)-7-{[5-(3,4-dichlorophenyl)-1,3,4-oxadiazol-2-yl]methyl}-1,3-dimethyl-2,3,6,7-tetrahydro-1H-purine-2,6-dione], 0.0659 µM; with `C=CCN(CC=C)c1nc2c(c(=O)n(C)c(=O)n2C)n1Cc1nnc(-c2ccc(Cl)c(Cl)c2)o1` [Example 8, 8-[bis(prop-2-en-1-yl)amino]-7-{[5-(3,4-dichlorophenyl)-1,3,4-oxadiazol-2-yl]methyl}-1,3-dimethyl-2,3,6,7-tetrahydro-1H-purine-2,6-dione], 0.162 µM.
Same read-out and setting: with `Cc1cccc(-c2nnc(Cn3c(NCc4ccccc4)nc4c3c(=O)n(C)c(=O)n4C)o2)c1` [Example 50, 8-(benzylamino)-1,3-dimethyl-7-{[5-(3-methylphenyl)-1,3,4-oxadiazo-2-yl]methyl}-2,3,6,7-tetrahydro-1H-purine-2,6-dione] the figure was 0.144 µM; with `Cc1cccc(-c2nnc(Cn3c(N4CCN(CCO)CC4)nc4c3c(=O)n(C)c(=O)n4C)o2)c1` [Example 56, 8-[4-(2-hydroxyethyl)piperazin-1-yl]-1,3-dimethyl-7-{[5-(3-methylphenyl)-1,3,4-oxadiazol-2-yl]methyl}-2,3,6,7-tetrahydro-1H-purine-2,6-dione], 0.922 µM.
Still for that read-out and setting: with `CCCNc1nc2c(c(=O)n(C)c(=O)n2C)n1Cc1nnc(-c2cccc(C)c2)o1` [Example 49, 1,3-dimethyl-7-{[5-(3-methylphenyl)-1,3,4-oxadiazol-2-yl]methyl}-8-(propylamino)-2,3,6,7-tetrahydro-1H-purine-2,6-dione] the figure was 0.356 µM; with `Cn1c(=O)c2c(nc(N3CCC3)n2Cc2nnc(-c3ccc(Cl)c(Cl)c3)o2)n(C)c1=O` [Example 36, 8-(azetidin-1-yl)-7-{[5-(3,4-dichlorophenyl)-1,3,4-oxadiazol-2-yl]methyl}-1,3-dimethyl-2,3,6,7-tetrahydro-1H-purine-2,6-dione], 0.034 µM; with `Cc1nc2c(c(=O)n(C)c(=O)n2C)n1Cc1nnc(-c2ccc(Cl)c(Cl)c2)o1` [Example 60, 7-{[5-(3,4-dichlorophenyl)-1,3,4-oxadiazol-2-yl]methyl}-1,3,8-trimethyl-2,3,6,7-tetrahydro-1H-purine-2,6-dione], 0.0284 µM.
Turning to `C[C@@H]1CN(c2nc3c(c(=O)n(C)c(=O)n3C)n2Cc2nnc(-c3ccc(Cl)c(Cl)c3)o2)CCN1` [Example 47, 7-{[5-(3,4-dichlorophenyl)-1,3,4-oxadiazol-2-yl]methyl}-1,3-dimethyl-8-[(3R)-3-methylpiperazin-1-yl]-2,3,6,7-tetrahydro-1H-purine-2,6-dione], the IC50 was found to be 0.0119 µM.
Same read-out and setting: with `Cn1c(=O)c2c(nc(N3CCCCC3)n2Cc2nnc(-c3ccc(Cl)c(Cl)c3)o2)n(C)c1=O` [Example 9, 7-{[5-(3,4-dichlorophenyl)-1,3,4-oxadiazol-2-yl]methyl}-1,3-dimethyl-8-(piperidin-1-yl)-2,3,6,7-tetrahydro-1H-purine-2,6-dione] the figure was 0.015 µM; with `COc1nc2c(c(=O)n(C)c(=O)n2C)n1Cc1nnc(-c2ccc(Cl)c(Cl)c2)o1` [Example 1, 7-{[5-(3,4-dichlorophenyl)-1,3,4-oxadiazol-2-yl]methyl}-8-methoxy-1,3-dimethyl-2,3,6,7-tetrahydro-1H-purine-2,6-dione], 0.0291 µM.

The test is the same for the next values; noted with them: Table 4; 6 nM NUDT5, 50 μM ADP-Ribose, 15 minutes at room temperature.
In the case of `COc1cc(-c2nnc(Cn3c(N4CC[C@@H](N(C)C)C4)nc4c3c(=O)n(C)c(=O)n4C)o2)ccc1C` [Example 139, 8-[(3R)-3-(dimethylamino)pyrrolidin-1-yl]-7-{[5-(3-methoxy-4-methylphenyl)-1,3,4-oxadiazol-2-yl]methyl}-1,3-dimethyl-2,3,6,7-tetrahydro-1H-purine-2,6-dione], the IC50 is 0.265 µM.
On to `Cn1c(=O)c2c(nc(N3CCNCC3)n2Cc2nnc(-c3cccnc3)o2)n(C)c1=O` [Example 113, 1,3-dimethyl-8-(piperazin-1-yl)-7-{[5-(pyridin-3-yl)-1,3,4-oxadiazol-2-yl]methyl}-2,3,6,7-tetrahydro-1H-purine-2,6-dione], for which the IC50 was determined as 1.69 µM.
Consider `COc1cc(-c2nnc(Cn3c(SCCN)nc4c3c(=O)n(C)c(=O)n4C)o2)ccc1C` [Example 142, 8-[(2-aminoethyl)sulfanyl]-7-{[5-(3-methoxy-4-methylphenyl)-1,3,4-oxadiazol-2-yl]methyl}-1,3-dimethyl-2,3,6,7-tetrahydro-1H-purine-2,6-dione], for which the IC50 stood at 0.0492 µM.
The same measure, in the same setting: with `Cn1c(=O)c2c(nc(-n3cccn3)n2Cc2nnc(-c3ccc(Cl)c(Cl)c3)o2)n(C)c1=O` [Example 67, 7-{[5-(3,4-dichlorophenyl)-1,3,4-oxadiazol-2-yl]methyl}-1,3-dimethyl-8-(1H-pyrazol-1-yl)-2,3,6,7-tetrahydro-1H-purine-2,6-dione] the figure was 0.2 µM.
On the same count and under the same terms, with `Cn1c(=O)c2c(nc(N3CCNCC3)n2Cc2cnc(-c3ccc(Cl)cc3)s2)n(C)c1=O` [Example 76, 7-{[2-(4-chlorophenyl)-1,3-thiazol-5-yl]methyl}-1,3-dimethyl-8-(piperazin-1-yl)-2,3,6,7-tetrahydro-1H-purine-2,6-dione] the figure was 0.376 µM; with `Cn1c(=O)c2c(nc(N3CCC(C(N)=O)CC3)n2Cc2nnc(-c3ccc(Cl)c(Cl)c3)o2)n(C)c1=O` [Example 136, 1-(7-{[5-(3,4-dichlorophenyl)-1,3,4-oxadiazol-2-yl]methyl}-1,3-dimethyl-2,6-dioxo-2,3,6,7-tetrahydro-1H-purin-8-yl)piperidine-4-carboxamide], 0.00827 µM; with `Cn1c(=O)c2c(nc(Cl)n2Cc2nnc(-c3ccc4cc[nH]c4c3)o2)n(C)c1=O` [Example 101, 8-chloro-7-{[5-(1H-indol-6-yl)-1,3,4-oxadiazol-2-yl]methyl}-1,3-dimethyl-2,3,6,7-tetrahydro-1H-purine-2,6-dione], 0.358 µM.
With `CCOC(=O)c1cnn(-c2nc3c(c(=O)n(C)c(=O)n3C)n2Cc2nnc(-c3ccc(Cl)c(Cl)c3)o2)c1` [Example 68, ethyl 1-(7-{[5-(3,4-dichlorophenyl)-1,3,4-oxadiazol-2-yl]methyl}-1,3-dimethyl-2,6-dioxo-2,3,6,7-tetrahydro-1H-purin-8-yl)-1H-pyrazole-4-carboxylate], the IC50 came to 0.214 µM.
Same read-out and setting: with `COc1cc(-c2nnc(Cn3c(N4CCC(CN)CC4)nc4c3c(=O)n(C)c(=O)n4C)o2)ccc1C` [Example 127, 8-[4-(aminomethyl)piperidin-1-yl]-7-{[5-(3-methoxy-4-methylphenyl)-1,3,4-oxadiazol-2-yl]methyl}-1,3-dimethyl-2,3,6,7-tetrahydro-1H-purine-2,6-dione] the figure was 0.0329 µM; with `Cn1c(=O)c2c(nc(N3CCNCC3)n2Cc2nnc(-c3ccc(N4CCNCC4)nc3)o2)n(C)c1=O` [Example 114, 1,3-dimethyl-8-(piperazin-1-yl)-7-({5-[6-(piperazin-1-yl)pyridin-3-yl]-1,3,4-oxadiazol-2-yl}methyl)-2,3,6,7-tetrahydro-1H-purine-2,6-dione], 29 µM; with `COc1cc(-c2nnc(Cn3c(N(C)CCN(C)C)nc4c3c(=O)n(C)c(=O)n4C)o2)ccc1C` [Example 137, 8-{[2-(dimethylamino)ethyl](methyl)amino}-7-{[5-(3-methoxy-4-methylphenyl)-1,3,4-oxadiazol-2-yl]methyl}-1,3-dimethyl-2,3,6,7-tetrahydro-1H-purine-2,6-dione], 0.0241 µM.
Same read-out and setting: with `Cn1c(=O)c2c(nc(N3CCNCC3)n2Cc2nnc(-c3ccc(CS(C)(=O)=O)cc3)o2)n(C)c1=O` [Example 122, 7-({5-[4-(methanesulfonylmethyl)phenyl]-1,3,4-oxadiazol-2-yl}methyl)-1,3-dimethyl-8-(piperazin-1-yl)-2,3,6,7-tetrahydro-1H-purine-2,6-dione] the figure was 24.4 µM.
The same measure, in the same setting: with `COc1cccc(-c2nnc(Cn3c(Cl)nc4c3c(=O)n(C)c(=O)n4C)o2)c1` [Example 92, 8-chloro-7-{[5-(3-methoxyphenyl)-1,3,4-oxadiazol-2-yl]methyl}-1,3-dimethyl-2,3,6,7-tetrahydro-1H-purine-2,6-dione] the figure was 0.596 µM.
With `Cn1c(=O)c2c(nc(N3CCC(CNC(=O)OC(C)(C)C)CC3)n2Cc2nnc(-c3ccc(Cl)c(Cl)c3)o2)n(C)c1=O` [Example 65, tert-butyl N-{[1-(7-{[5-(3,4-dichlorophenyl)-1,3,4-oxadiazol-2-yl]methyl}-1,3-dimethyl-2,6-dioxo-2,3,6,7-tetrahydro-1H-purin-8-yl)piperidin-4-yl]methyl}carbamate], the IC50 was 0.0338 µM.
Take `Cn1c(=O)c2c(nc(N)n2Cc2nnc(-c3ccc(Cl)c(Cl)c3)o2)n(C)c1=O` [Example 87, 8-amino-7-{[5-(3,4-dichlorophenyl)-1,3,4-oxadiazol-2-yl]methyl}-1,3-dimethyl-2,3,6,7-tetrahydro-1H-purine-2,6-dione]: the IC50 came to 0.0165 µM.
Same read-out and setting: with `COc1ccc(-c2nnc(Cn3c(Cl)nc4c3c(=O)n(C)c(=O)n4C)o2)cc1` [Example 73, 8-chloro-7-{[5-(4-methoxyphenyl)-1,3,4-oxadiazol-2-yl]methyl}-1,3-dimethyl-2,3,6,7-tetrahydro-1H-purine-2,6-dione] the figure was 1.26 µM.
